According to patent US7998739B2, “Methods of activating NKT cells” (The Scipps Research Institute, priority 2004, dated 2011):
Entries after “also recorded” stand apart in the source; their conditions may differ.

Experiments:
[1] = target: T1, mCD1d-GT (mouse CD1d preloaded with GT1b) (Mus musculus, UniProt P11609); assay: CD1d lipid loading in the presence of saposin B, visualized by isoelectrofocusing; format: binding; settings: cell-free; for replacement of GT1b preloaded onto CD1d: 2 μM mCD1d-GT, 25 μM isogloboside, with or without 5 μM saposin B
T1 construct: made in house; host or cells: fly expression system
T1 sequence (P11609 19-297 limits assumed): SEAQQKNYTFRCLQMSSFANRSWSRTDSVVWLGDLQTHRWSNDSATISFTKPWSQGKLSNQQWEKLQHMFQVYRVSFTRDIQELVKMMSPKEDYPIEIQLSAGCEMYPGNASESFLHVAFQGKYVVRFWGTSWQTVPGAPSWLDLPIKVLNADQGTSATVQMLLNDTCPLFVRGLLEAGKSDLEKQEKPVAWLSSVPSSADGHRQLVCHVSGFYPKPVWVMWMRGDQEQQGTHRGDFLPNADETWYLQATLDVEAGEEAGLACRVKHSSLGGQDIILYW
T1 sequence (P01887 21-119 partner): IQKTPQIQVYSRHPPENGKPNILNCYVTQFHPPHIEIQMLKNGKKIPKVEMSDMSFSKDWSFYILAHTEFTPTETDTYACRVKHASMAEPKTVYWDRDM
Source text: (§1) FIG. 4C left panel depicts in vitro loading of iGb3 and iGb4 onto recombinant CD1d in the presence of saposin B, visualized by isoelectrofocusing.
(§2) CD1d lipid loading and cell-free presentation assay. Purified complexes of CD1 d-GT were made and exchange of lipid in these complexes was quantified from isoelectric focusing gels as previously described by Cantu C III, et al., J. Immunol. 170, 4673-82 (2003), incorporated herein by reference in its entirety. Saposin-mediated loading of lipid was performed with recombinant human saposin B as described in Zhou D et al., Science 303, 523-27 (2004), incorporated herein by reference in its entirety, and with mouse saposin B. Recombinant mouse saposin B was expressed in a fly expression system and purified in the same manner used for production of mouse CD1d, described in Benlagha K, et al., J. Exp. Med 191, 1895-1903 (2000), incorporated herein by reference in its entirety. […] Stimulation of the NKT cell hybridoma DN32.D3 was measured. Briefly, mouse CD1d protein was coated for 24 h at 1 μg/well in phosphate-buffered saline (PBS) on 96-well plates. Plates were washed three times with PBS and then incubated for another 24 h with a constant lipid concentration of 6 μg/ml and various concentrations of mouse saposin B. Plates were washed three times with PBS; then 2×10^4 hybridoma cells were added. Supernatants were collected after 24 h to measure IL-2 release.

[2] = system: NKT cell hybridoma DN32.D3; assay: Cell-free presentation to DN32.D3 by plate-bound CD1d in the presence of saposin B (IL-2 release); format: cell-based, mouse; settings: lipid 6 μg/ml
Source text: as §1
as §2, with “Supernatants were collected after 24 h to measure IL-2 release.” left out

[3] = system: human Vα24 NKT line; assay: Cytokine secretion by human Vα24 NKT line stimulated with glycolipid-pulsed antigen presenting cells (ELISA); format: cell-based; settings: for stimulation of human Vα24 NKT cells: in the presence of antigen-presenting cells; for Th1 (IFNγ) cytokine secretion by polyclonal human NKT line / Th2 (IL4) cytokine secretion by polyclonal human NKT line: 100 ng/ml in FIG. 3C right panel
Method: FIG. 3C left panel depicts IFN-γ production by a human Vα24 NKT line stimulated with a range of concentrations of iGb3 and αGalCer in the presence of irradiated PBMC as CD1d-expressing antigen presenting cells. The right panel depicts IFN-γ vs. IL-4 production by the human Vα24 NKT line in response to irradiated PBMC and 100 ng/ml of iGb3 of synthetic, purified and enzymatic origin, vs. 100 ng/ml of αGalCer, Gb3 or LacCer, as indicated.
(§3) CD1d-restricted T cell responses. Antigen presenting cells were mouse spleen cells cultured at 5×10^5 cells/well, mouse bone marrow-derived dendritic cells generated in the presence of GMC-SF and IL4, activated overnight with 10 ng/ml TNF-α and cultured at 5×10^4 cells/well, and human PBMC or GM-CSF/IL-4 cultured PBMC-derived dendritic cells cultured at 2.5×10^5 cells/well. NKT hybridomas were cultured at 5×10^4 cells/well and the human NKT line was cultured at 2.5×10^5 cells/well. Cytokines released in the culture supernatant were measured by standard ELISA for human IL-4 and IFN-γ (Pharmingen-Becton Dickinson, CA), and the indicator CTLL IL2 bioassay for mouse hybridomas. NKT hybridomas DN32.D3 (Vα14^+), TCBII (Vα14^−), TBA7 (Vα14^−) and the rat basophil leukemia RBL.CD1d transfectant line were used as described in Park, S-H et al., J. Immunol. 160 3128-34 (1998), incorporated herein by reference in its entirety. The human polyclonal Vα24Vβ11 NKT line was derived by repeated αGalCer stimulation of healthy human PBL in vitro and maintained by PHA and IL2 restimulation, and two different subclones, CD4 and DN, were used in experiments. Griffonia Simplicifolia isolectin B4 (IB4) was from Vector Laboratories, and anti-human CD1d mAb 51 was obtained from Dr. S. Porcelli. For stimulation with synthetic glycolipids, APCs were pulsed for 6 hours with various concentrations of lipids (from stock solution in DMSO), washed and incubated with NKT cell hybridoma or cell lines for 18-24 hours.

[4] = system: mouse Vα14 hybridoma DN32.D3; assay: Stimulation of mouse Vα14 NKT hybridomas by glycolipids with bone marrow-derived dendritic cells (CTLL IL2 bioassay); format: cell-based; settings: for presentation to DN32.D3 by Hexb−/− cells: bone marrow-derived DC from Hexb−/− mice; for stimulation of mouse Vα14 NKT cells: in the presence of antigen-presenting cells
Method: FIG. 4A depicts stimulation of mouse Vα14 hybridoma DN32.D3 by iGb3 and iGb4 with bone marrow-derived DC as CD1d-expressing antigen-presenting cells from Hexb^−/−, Hexb^−/− and CD1-TD mice, as indicated.
as §3

[5] = system: Vα14 DN32.D3 hybridoma; assay: Vα14 DN32.D3 hybridoma stimulation by spleen cells pulsed with αGalCer variants; format: cell-based, mouse
Source text: FIG. 2B depicts Vα14 DN32.D3 hybridoma stimulation responses to spleen cells from Hexb^−/− (o) and Hexb^−/− littermates (●), αGalAl-(▪) and CD1-TD knock-in (▴) mice. Spleen cells were pulsed with αGalCer variants as indicated prior to hybridoma stimulation. The data are representative of 2 separate experiments.
as §3, with “hours. […]” for “hours.”

[6] = system: hVα24 NKT line; assay: Inhibition of the response of the hVα24 NKT line to PBMC-derived dendritic cells (GMCSF release, ELISA); format: cell-based, human; settings: PBMC-derived dendritic cells plus exogenous ligand
Method: as §3, with “Cytokines released in the culture supernatant were measured by standard ELISA for human IL-4 and IFN-γ (Pharmingen-Becton Dickinson, CA), and the indicator CTLL IL2 bioassay for mouse hybridomas.” left out

[7] = system: human Vα24 NKT cells; assay: Expansion of hVα24 NKT cells in 4-day cultures of fresh PBMC (anti-Vα24 / CD1d-αGalCer tetramer staining); format: cell-based; settings: 100 ng/ml
Method: FIG. 3B depicts frequency of hVα24 NKT PBL, doubly-stained by anti-Vα24 and CD1d-αGalCer tetramers, in PBMC cultured for 4 days in the presence of 100 ng/ml αGalCer, iGb3, or medium alone, as indicated.
Lymphocyte preparation and flow cytometry. Lymphocyte preparations, CD1d-αGalCer tetramers, and flow cytometry staining were done according to standard protocols, e.g., those described in Zhou D et al., Science 303, 523-27 (2004), incorporated herein by reference in its entirety.
Chemically synthesized globotrihexosylceramide (Gb3, Gal α1,4 Gal β1,4 Glc β1,1 Cer) and isoglobotrihexosylceramide (iGb3, Gal α1,3 Gal β1,4 Glc β1,1 Cer) were tested for their ability to stimulate NKT cells in the presence of antigen-presenting cells.

[8] = system: non-Vα14 hybridomas; assay: Stimulation of non-Vα14 hybridomas by glycolipid presented by bone marrow-derived dendritic cells; format: cell-based, mouse; settings: not shown
Method: as §3, with “For stimulation with synthetic glycolipids, APCs were pulsed for 6 hours with various concentrations of lipids (from stock solution in DMSO), washed and incubated with NKT cell hybridoma or cell lines for 18-24 hours.” left out

[9] = presented by irradiated PBMC, listed as Synthetic iGb3
[10] = presented by irradiated PBMC, listed as iGb3 produced in vitro by action of iGb3 synthase
[11] = presented by irradiated PBMC, listed as natural iGb3 purified from cat intestine

Row | loading onto mCD1d-GT by mouse versus human saposin B [1] | Compound | replacement of GT1b preloaded onto CD1d [1] | direct stimulation of Vα14 NKT cells by CD1d/lipid complexes [2] | stimulation of human Vα24 NKT cells [3] | presentation to DN32.D3 by Hexb−/− cells [4] | stimulation of mouse Vα14 NKT cells [4] | presentation to DN32.D3 by α-Galactosidase A (αGalA)−/− cells [5] | stimulation and expansion of human NKT cells (frequency of hVα24 NKT PBL) [7] | other results
1 | equally loaded | CCCCCCCCCCCCC/C=C/[C@@H](O)[C@H](COC1OC(CO)C(OC2OC(CO)C(O)C(OC3OC(CO)C(O)C(OC4OC(CO)C(O)C(O)C4NC(C)=O)C3O)C2O)C(O)C1O)NC(=O)CCCCCCCCCCCCCCCCCCCCCCCCC (stereo partly shown) [iGb4] | partial replacement; also recorded: required saposin B | very weak response | stimulatory | failed to present | stimulatory |  |  | 
2 |  | Gal α1,2 Gal αCer |  |  |  |  |  | selective defect |  | 
3 |  | CCCCCCCCCCCCCCCCCCCCCCCCCC(=O)N[C@@H](CO[C@H]1O[C@H](CO)[C@H](O)[C@H](O)[C@H]1O)[C@H](O)[C@H](O)CCCCCCCCCCCCCC [αGalCer, α-galactosylceramide, reference compound] |  |  |  |  |  |  | selectively stimulated and expanded | GMCSF release in the supernatant, control without lectin [6]: 939 pg/mL
4 |  | Gal α1,4 Gal αCer |  |  |  |  |  | selective defect |  | 
5 |  | GalNAc β1,4 Gal αCer |  |  |  |  |  |  |  | presentation to DN32.D3 by Hexb−/− cells [5]: selective defect
6 | equally loaded | CCCCCCCCCCCCC/C=C/[C@@H](O)[C@H](CO[C@@H]1O[C@H](CO)[C@@H](O[C@@H]2O[C@H](CO)[C@H](O)[C@H](O[C@H]3O[C@H](CO)[C@H](O)[C@H](O)[C@H]3O)[C@H]2O)[C@H](O)[C@H]1O)NC(=O)CCCCCCCCCCCCCCCCCCCCCCCCC [iGb3, isoglobotrihexosylceramide] | partial replacement; also recorded: required saposin B | directly stimulated | potent stimulator | presented | potent stimulator |  | selectively stimulated and expanded | stimulation of non-Vα14 hybridomas [8]: failed to stimulate 3/3; Th1 (IFNγ) cytokine secretion by polyclonal human NKT line [3, 9]: stimulated potent; Th2 (IL4) cytokine secretion by polyclonal human NKT line [3, 9]: stimulated potent; Th1 (IFNγ) cytokine secretion by polyclonal human NKT line [3, 10]: levels comparable to αGalCer; Th2 (IL4) cytokine secretion by polyclonal human NKT line [3, 10]: levels comparable to αGalCer; Th1 (IFNγ) cytokine secretion by polyclonal human NKT line [3, 11]: levels comparable to αGalCer; Th2 (IL4) cytokine secretion by polyclonal human NKT line [3, 11]: levels comparable to αGalCer; cloned CD4 and DN human NKT lines showing cytokine secretion ([3]; presented by irradiated PBMC, lines responding/tested, not shown): 2/2; other individual mVα14 hybridomas stimulated ([4]; bone marrow-derived dendritic cells, hybridomas responding/tested, not shown): 5/5; stimulation of mVα14 NKT cell hybridoma DN32.D3 ([4]; presented by CD1d-expressing bone marrow-derived dendritic cells): stimulated
